Data reported in patent US8742115B2, “Co-crystals and salts of CCR3-inhibitors” (Boehringer Ingelheim International GmbH, priority 2010, dated 2014).

Each compound was assayed against human chemokine receptor CCR3 (Homo sapiens (Human), UniProt P51677) (assay: CCR3 receptor binding assay (SPA, 125I-eotaxin-1)). Settings: human Eotaxin-1 at human CCR3-Rezeptor; membranes of hCCR3-C1 (transfected K562) cells.
Method: The CCR3 receptor binding test is based on a K562 cell line (leukemia myelogenic blast cells) transfected with the human chemokine receptor CCR3 (hCCR3-C1 cells). The cell membranes were prepared by disrupting the hCCR3-C1 cells by […]. The preparation was centrifuged at 400 g 4° C. for 30 min. The supernatant was transferred into fresh tubes followed by a second centrifugation at 48000 g, 4° C. for 1 h. The membranes were re-suspended in the SPA incubation buffer (25 mM HEPES, 25 mM MgCl2 6×H2O, 1 mM CaCl2 2×H2O) without bovine serum albumin and homogenized by passing through a single use needle (Terumo, 23Gx1″). The membranes were stored in aliquots at −80° C.
The CCR3 receptor binding assay was performed in a Scintillation Proximity Assay (SPA) design with the radioligand recombinant human ^125Iodine-eotaxin-1. Cell membranes of hCCR3 C1 cells were again homogenized by passing through a single use needle (Terumo, 23Gx1″) and diluted in SPA incubation buffer in suitable concentrations (0.5-10 μg protein/well) in 96 well microtiter plates (1450-514, Perkin Elmer). The SPA assay was set up in the SPA incubation buffer with a final volume of 200 μl and final concentration of 25 mM HEPES, 25 mM MgCl2 6×H2O, 1 mM CaCl2 2×H2O and 0.1% bovine serum albumin. The SPA assay mixture contained 60 μl of the membrane suspension, 80 μl of Wheat Germ Agglutinin coated PVT beads (organic scintillator, GE Healthcare, RPNQ-0001) 0.2 mg/well), 40 μl of recombinant human ^125Jodine-eotaxin-1 (Biotrend), diluted in SPA buffer to a final concentration of 30.000 dpm per well, and 20 μl of the test compound (dissolved in DMSO dilutions). The SPA assay mixture was incubated for 2 h at room temperature. Bound radioactivity was determined with a scintillation counter (Micro Beta “Trilux”, Wallac). Included were controls for total binding (no displacer added, Bo) and non-specific binding (NSB) by adding unlabelled recombinant human Eotaxin-1 (Biotrend, Cat #300-21) or a reference compound.
Determination of the affinity of a test compound was calculated by subtraction of the non-specific binding (NSB) from the total binding (Bo) or the binding in the presence of the test compound (B) at a given compound concentration. The NSB value was set to 100% inhibition. The Bo-NSB value was set to 0% inhibition.

Sequence of human chemokine receptor CCR3 (P51677 whole entry): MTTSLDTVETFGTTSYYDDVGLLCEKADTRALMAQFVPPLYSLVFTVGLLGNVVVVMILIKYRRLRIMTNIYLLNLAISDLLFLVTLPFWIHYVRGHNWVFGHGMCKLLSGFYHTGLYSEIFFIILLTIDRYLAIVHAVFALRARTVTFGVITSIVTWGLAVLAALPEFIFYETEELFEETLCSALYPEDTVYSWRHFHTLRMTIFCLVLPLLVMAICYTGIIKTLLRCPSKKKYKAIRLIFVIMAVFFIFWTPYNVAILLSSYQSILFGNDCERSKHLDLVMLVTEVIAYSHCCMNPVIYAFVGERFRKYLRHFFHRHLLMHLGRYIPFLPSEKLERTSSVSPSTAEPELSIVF

Ki [nM] | SMILES
8.5 | Cc1cc(CN2CCC(N3C(=O)CC[C@@H]3C(=O)Nc3cc(C(=O)N(C)C)ccn3)CC2)ccc1Cl [Example 8]
232 | COc1cc(C(=O)N(C)C)cc(NC(=O)[C@H]2CCC(=O)N2C2CCN(Cc3ccc(Cl)c(C)c3)CC2)n1 [Example 26]
4.2 | Cc1cc(C(=O)NC2CCC2)cc(NC(=O)[C@H]2CCC(=O)N2C2CCN(Cc3ccc(Cl)c(C)c3)CC2)n1 [Example 23]
4.1 | Cc1cc(CN2CCC(N3C(=O)CC[C@@H]3C(=O)Nc3cc(C(=O)N(C)C)cc(C(C)C)n3)CC2)ccc1Cl [Example 29]
1.7 | CCN(C)C(=O)c1cc(C)nc(NC(=O)[C@H]2CCC(=O)N2C2CCN(Cc3ccc(Cl)c(C)c3)CC2)c1 [Example 36]
4 | CCC(C)NC(=O)c1cc(C)nc(NC(=O)[C@H]2CCC(=O)N2C2CCN(Cc3ccc(Cl)c(C)c3)CC2)c1 (stereo partly shown) [Example 19]
70.3 | Cc1cc(C(=O)N(C)C)cc(NC(=O)[C@H]2CCC(=O)N2C2CCN(Cc3ccc(F)c(C)c3)CC2)n1 [Example 30]
0.9 | Cc1cc(C(=O)N2CCCC2)cc(NC(=O)[C@H]2CCC(=O)N2C2CCN(Cc3ccc(Cl)c(C)c3)CC2)n1 [Example 9]
2.3 | Cc1cc(CN2CCC(N3C(=O)CC[C@@H]3C(=O)Nc3cc(C(=O)N(C)C)cc(C4CC4)n3)CC2)ccc1Cl [Example 32]
2.3 | Cc1cc(C(=O)N(C)C(C)C)cc(NC(=O)[C@H]2CCC(=O)N2C2CCN(Cc3ccc(Cl)c(C)c3)CC2)n1 [Example 22]
3.5 | Cc1cc(C(=O)NCC2CC2)cc(NC(=O)[C@H]2CCC(=O)N2C2CCN(Cc3ccc(Cl)c(C)c3)CC2)n1 [Example 15]
3.2 | Cc1cc(C(=O)N(C)C)cc(NC(=O)[C@H]2CCC(=O)N2C2CCN(Cc3ccc(Cl)c(C)c3)CC2)n1 [Example 11]
5.2 | CCC(C)N(C)C(=O)c1cc(C)nc(NC(=O)[C@H]2CCC(=O)N2C2CCN(Cc3ccc(Cl)c(C)c3)CC2)c1 (stereo partly shown) [Example 21]
4.6 | Cc1cc(C(=O)NCC(F)F)cc(NC(=O)[C@H]2CCC(=O)N2C2CCN(Cc3ccc(Cl)c(C)c3)CC2)n1 [Example 18]
8.3 | CCc1cc(C(=O)N(C)C)cc(NC(=O)[C@H]2CCC(=O)N2C2CCN(Cc3ccc(Cl)c(C)c3)CC2)n1 [Example 25]
4.7 | Cc1cc(CN2CCC(N3C(=O)CC[C@@H]3C(=O)Nc3cc(C(=O)N4CCCC4)ccn3)CC2)ccc1Cl [Example 12]
414 | CCCCc1cc(C(=O)N(C)C)cc(NC(=O)[C@H]2CCC(=O)N2C2CCN(Cc3ccc(Cl)c(C)c3)CC2)n1 [Example 27]

Ki [nM] | SMILES
87.2 | Cc1cc(C(=O)N(C)C)cc(NC(=O)[C@H]2CCC(=O)N2C2CCN(Cc3ccc(Cl)c(C(F)(F)F)c3)CC2)n1 [Example 31]
67.5 | Cc1ccnc(NC(=O)[C@H]2CCC(=O)N2C2CCN(Cc3ccc(Cl)c(C)c3)CC2)c1 [Example 4]
19.1 | Cc1cc(CN2CCC(N3C(=O)CC[C@@H]3C(=O)Nc3cc(C(=O)N4CCOCC4)ccn3)CC2)ccc1Cl [Example 13]
1400 | Cc1cc(CN2CCC(N3C(=O)CC[C@@H]3C(=O)N(C)c3ccccn3)CC2)ccc1Cl [Example 14]
23.4 | CNC(=O)c1ccnc(NC(=O)[C@H]2CCC(=O)N2C2CCN(Cc3ccc(Cl)c(C)c3)CC2)c1 [Example 1]
10.4 | CNC(=O)c1cc(C)nc(NC(=O)[C@H]2CCC(=O)N2C2CCN(Cc3ccc(Cl)c(C)c3)CC2)c1 [Example 7]
197 | CCc1ccnc(NC(=O)[C@H]2CCC(=O)N2C2CCN(Cc3ccc(Cl)c(C)c3)CC2)c1 [Example 5]
6.8 | Cc1cc(C(=O)N2CCC2)cc(NC(=O)[C@H]2CCC(=O)N2C2CCN(Cc3ccc(Cl)c(C)c3)CC2)n1 [Example 16]
7.9 | C#Cc1cc(C(=O)N(C)C)cc(NC(=O)[C@H]2CCC(=O)N2C2CCN(Cc3ccc(Cl)c(C)c3)CC2)n1 [Example 34]
17.8 | Cc1cc(C(=O)N(C)C)cc(NC(=O)[C@H]2CCC(=O)N2C2CCN(Cc3ccc(Cl)c(Cl)c3)CC2)n1 [Example 28]
7.9 | CCc1cc(CN2CCC(N3C(=O)CC[C@@H]3C(=O)Nc3cc(C(=O)N(C)C)cc(C)n3)CC2)ccc1Cl [Example 33]
5.8 | Cc1cc(C(=O)N(C)C)cc(NC(=O)[C@H]2CCC(=O)N2C2CCN(Cc3ccc(Br)c(C)c3)CC2)n1 [Example 24]
69.6 | Cc1cccc(NC(=O)[C@H]2CCC(=O)N2C2CCN(Cc3ccc(Cl)c(C)c3)CC2)n1 [Example 2]
46.5 | COc1ccnc(NC(=O)[C@H]2CCC(=O)N2C2CCN(Cc3ccc(Cl)c(C)c3)CC2)c1 [Example 3]
72 | CNC(=O)c1cccc(NC(=O)[C@H]2CCC(=O)N2C2CCN(Cc3ccc(Cl)c(C)c3)CC2)n1 [Example 6]
4.3 | Cc1cc(C(=O)NCC(C)C)cc(NC(=O)[C@H]2CCC(=O)N2C2CCN(Cc3ccc(Cl)c(C)c3)CC2)n1 [Example 17]
61.3 | Cc1cc(C(=O)N(C)C)cc(NC(=O)[C@H]2CCC(=O)N2C2CCN(Cc3cc(C)c(Cl)c(C)c3)CC2)n1 [Example 35]
